# In patent US4001272A, “Herbicidal 2-fluoro-4-halo-phenyl-4,5,6,7-tetrahydro-2H-isoindole-1,3-diones” (E. I. Du Pont de Nemours and Company, priority 1974, dated 1977):
# Experiments:
# Type in all cases: in vivo
# [1] = tested on: lima beans; test: Test A: field test, crop response of lima beans; details: seven weeks, 0 = no injury to 10 = complete kill
# Source text: (§1) In test A, soybeans, peanuts, lima beans, green beans and squash were planted in a field infested with the following weed seeds: crabgrass (Digitaria sanquinalis), foxtails (Setaria spp.), barnyardgrass (Echinochloa crusgalli), pigweed (Amaranthus spp.), ragweed (Ambrosia artemisiifolia), velvetleaf (Abutilon theophrasti), purslane (Portulaca oleracea) and flower-of-an-hour (Hibiscus trionum). A 50% wettable powder formulation of 2-(4-chloro-2-fluorophenyl)-4,5,6,7-tetrahydro-2H-isoindole-1,3-dione was applied in the form of an aqueous suspension at rates of 0.125, 0.25, 0.5 and 1.0 kg/ha, each treatment replicated twice. The plots were rated for percent weed control and crop response seven weeks after treatment. Crop response was expressed on a scale of 0 = no injury to 10 = complete kill.
# [2] = tested on: velvetleaf (Abutilon theophrasti); test: Test B: overall spray in carrot field after weed emergence, percent control of velvetleaf; details: six weeks after treatment, 0.1% Tween 20
# Source text: (§2) Test B involved a field sown to carrots and in which the following weed species emerged naturally: crabgrass (Digitaria sanquinalis), foxtails (Setaria spp.), barnyardgrass (Echinochloa crusgalli), pigweed (Amaranthus spp.), ragweed (Ambrosia artemisiifolia), velvetleaf (Abutilon theophrasti), smartweed (Polygonum spp.) and lambsquarters (Chenopodium album). Sixteen days after sowing, when all species of weeds had emerged, the plants were sprayed overall with a 50% wettable powder formulation of 2-(4-chloro-2-fluorophenyl)4,5,6,7-tetrahydro-2H-isoindole-1,3dione (Treatment I) in the form of an aqueous suspension, at rates of 0.5, 1.0, 2.0 and 4.0 kg/ha, and with 2-(4-chlorophenyl)-4,5,6,7-tetrahydro-2H-isoindole-1,3-dione (Treatment II) in the same form and at the same rates. The spray volume was 425 l/ha. The surfactant Tween 20* was added to all treatments in a concentration of 0.1% by weight. Six weeks after treatment, visual observations were made of percent weed control obtained and, for carrots, crop response.
# (§3) *Tween 20 -- A trademark of ICI of America which is the reaction product of sorbitan monolaurate with an average of 20 moles of ethylene oxide.
# [3] = tested on: velvetleaf (Abutilon theophrasti); test: Test C: preemergence weed control in rice, velvetleaf; details: 29 days after treatment
# Source text: as §1
# (§4) Test C concerned preemergence weed control in rice. The field selected contained seeds of the following weed species: crabgrass (Digitaria sanquinalis), foxtail (Setaria spp.), barnyardgrass (Echinochloa crusgalli), pigweed (Amaranthus spp.), ragweed (Ambrosia artemisiifolia), velvetleaf (Abutilon theophrasti), purslane (Portulaca oleracea) and flower-of-an-hour (Hibiscus trionum). Two varieties of rice, CSM-3 and Nato, were planted at depths of both 1 and 2 cm. In addition, rice seedlings of both varieties were transplanted into the field to be treated. Immediately thereafter, the plot was treated with an aqueous suspension of 2-(4-chloro-2-fluorophenyl)-4,5,6,7-tetrahydro-2H-isoindole-1,3-dione (Treatment I) at rates of 0.125 and 0.25 kg/ha, and an aqueous suspension of 2-(4-chlorophenyl)-4,5,6,7-tetrahydro-2H-isoindole-1,3dione (Treatment II) at rates of 0.25, 0.50, 1.00 and 2.00 kg/ha. The test chemicals had been formulated as 50% wettable powders. Overall spray volume was 540 l/ha. Ratings of percent weed control obtained and crop response were made 29 days after treatment, as described for test A. The ratings are summarized in the following Table III.
# [4] = tested on: foxtail (Setaria spp.); test: Test C: preemergence weed control in rice, foxtail; details: 29 days after treatment
# Source text: as §1, §4
# [5] = tested on: flower-of-an-hour (Hibiscus trionum); test: Test A: field test, percent weed control of flower-of-an-hour; details: seven weeks after treatment
# Source text: as §1
# [6] = tested on: velvetleaf (Abutilon theophrasti); test: Test A: field test, percent weed control of velvetleaf; details: seven weeks after treatment
# Source text: as §1
# [7] = tested on: flower-of-an-hour (Hibiscus trionum); test: Test C: preemergence weed control in rice, flower-of-an-hour; details: 29 days after treatment
# Source text: as §1, §4
# [8] = tested on: squash; test: Test A: field test, crop response of squash; details: seven weeks, 0 = no injury to 10 = complete kill
# Source text: as §1
# [9] = tested on: peanuts; test: Test A: field test, crop response of peanuts; details: seven weeks, 0 = no injury to 10 = complete kill
# Source text: as §1
# [10] = tested on: pigweed (Amaranthus spp.); test: Test A: field test, percent weed control of pigweed; details: seven weeks after treatment
# Source text: as §1
# [11] = tested on: naturally emerging weeds; test: Test B: control of naturally emerging weeds, comparison of treatments
# Source text: as §2, §3
# [12] = tested on: ragweed (Ambrosia artemisiifolia); test: Test C: preemergence weed control in rice, ragweed; details: 29 days after treatment
# Source text: as §1, §4
# [13] = tested on: barnyardgrass (Echinochloa crusgalli); test: Test A: field test, percent weed control of barnyardgrass; details: seven weeks after treatment
# Source text: as §1
# [14] = tested on: ragweed (Ambrosia artemisiifolia); test: Test B: overall spray in carrot field after weed emergence, percent control of ragweed; details: six weeks after treatment, 0.1% Tween 20
# Source text: as §2, §3
# [15] = tested on: pigweed (Amaranthus spp.); test: Test B: overall spray in carrot field after weed emergence, percent control of pigweed; details: six weeks after treatment, 0.1% Tween 20
# Source text: as §2, §3
# [16] = tested on: foxtails (Setaria spp.); test: Test A: field test, percent weed control of foxtails; details: seven weeks after treatment
# Source text: as §1
# [17] = tested on: soybeans; test: Test A: field test, crop response of soybeans; details: seven weeks, 0 = no injury to 10 = complete kill
# Source text: as §1
# [18] = tested on: carrots; test: Test B: overall spray in carrot field after weed emergence, crop response of carrots; details: six weeks after treatment, 0.1% Tween 20
# Source text: as §2, §3
compound,measurement,setting,value
"O=C1C2=C(CCCC2)C(=O)N1c1ccc(Cl)cc1F [Treatment I, 2-(4-chloro-2-fluorophenyl)-4,5,6,7-tetrahydro-2H-isoindole-1,3-dione]","Crop Response, Lima beans",[1]; 0.125 kg/ha,0
same,"Crop Response, Lima beans",[1]; 0.25 kg/ha,1
same,"Crop Response, Lima beans",[1]; 0.50 kg/ha,4
same,"Crop Response, Lima beans",[1]; 1.00 kg/ha,8.5
same,"% Control, Velvetleaf",[2]; 0.5 kg/ha,100%
same,"% Control, Velvetleaf",[2]; 1.0 kg/ha,100%
same,"% Control, Velvetleaf",[2]; 2.0 kg/ha,100%
same,"% Control, Velvetleaf",[2]; 4.0 kg/ha,100%
same,"% Control, Velvetleaf",[3]; 0.125 kg/ha,100%
same,"% Control, Velvetleaf",[3]; 0.25 kg/ha,100%
same,"% Control, Foxtail",[4]; 0.125 kg/ha,96%
same,"% Control, Foxtail",[4]; 0.25 kg/ha,100%
same,"% Control, Flower-of-an-Hour",[5]; 0.125 kg/ha,87%
same,"% Control, Flower-of-an-Hour",[5]; 0.25 kg/ha,99%
same,"% Control, Flower-of-an-Hour",[5]; 0.50 kg/ha,99%
same,"% Control, Flower-of-an-Hour",[5]; 1.00 kg/ha,100%
same,"% Control, Velvetleaf",[6]; 0.125 kg/ha,90%
same,"% Control, Velvetleaf",[6]; 0.25 kg/ha,99%
same,"% Control, Velvetleaf",[6]; 0.50 kg/ha,100%
same,"% Control, Velvetleaf",[6]; 1.00 kg/ha,100%
same,"% Control, Flower-of-an-Hour",[7]; 0.125 kg/ha,100%
same,"% Control, Flower-of-an-Hour",[7]; 0.25 kg/ha,100%
same,"Crop Response, Squash",[8]; 0.125 kg/ha,2
same,"Crop Response, Squash",[8]; 0.25 kg/ha,2
same,"Crop Response, Squash",[8]; 0.50 kg/ha,6
same,"Crop Response, Squash",[8]; 1.00 kg/ha,9.5
same,"Crop Response, Peanuts",[9]; 0.125 kg/ha,0
same,"Crop Response, Peanuts",[9]; 0.25 kg/ha,0
same,"Crop Response, Peanuts",[9]; 0.50 kg/ha,2
same,"Crop Response, Peanuts",[9]; 1.00 kg/ha,3.5
same,"% Control, Pigweed",[10]; 0.125 kg/ha,90%
same,"% Control, Pigweed",[10]; 0.25 kg/ha,98%
same,"% Control, Pigweed",[10]; 0.50 kg/ha,95%
same,"% Control, Pigweed",[10]; 1.00 kg/ha,100%
same,"control of crabgrass, foxtails and barnyardgrass, in words",[11]; compared to Treatment II,outstanding when compared to Treatment II
same,"% control results, in words","[11]; eight naturally emerging weeds, versus Treatment II",clearly superior to Treatment II
same,"% Control, Ragweed",[12]; 0.125 kg/ha,100%
same,"% Control, Ragweed",[12]; 0.25 kg/ha,100%
same,"% Control, Barnyardgrass",[13]; 0.125 kg/ha,45%
same,"% Control, Barnyardgrass",[13]; 0.25 kg/ha,82%
same,"% Control, Barnyardgrass",[13]; 0.50 kg/ha,98%
same,"% Control, Barnyardgrass",[13]; 1.00 kg/ha,99%
same,"% Control, Ragweed",[14]; 0.5 kg/ha,98%
same,"% Control, Ragweed",[14]; 1.0 kg/ha,> 99%
same,"% Control, Ragweed",[14]; 2.0 kg/ha,100%
same,"% Control, Ragweed",[14]; 4.0 kg/ha,100%
same,"% Control, Pigweed",[15]; 0.5 kg/ha,92%
same,"% Control, Pigweed",[15]; 1.0 kg/ha,99%
same,"% Control, Pigweed",[15]; 2.0 kg/ha,100%
same,"% Control, Pigweed",[15]; 4.0 kg/ha,100%
same,"% Control, Foxtail",[16]; 0.125 kg/ha,40%
same,"% Control, Foxtail",[16]; 0.25 kg/ha,82%
same,"% Control, Foxtail",[16]; 0.50 kg/ha,95%
same,"% Control, Foxtail",[16]; 1.00 kg/ha,99%
same,"Crop Response, Soybeans",[17]; 0.125 kg/ha,0
same,"Crop Response, Soybeans",[17]; 0.25 kg/ha,1.5
same,"Crop Response, Soybeans",[17]; 0.50 kg/ha,3
same,"Crop Response, Soybeans",[17]; 1.00 kg/ha,7.5
"O=C1C2=C(CCCC2)C(=O)N1c1ccc(Cl)cc1 [Treatment II, 2-(4-chlorophenyl)-4,5,6,7-tetrahydro-2H-isoindole-1,3-dione]","% Control, Velvetleaf",[2]; 0.5 kg/ha,70%
same,"% Control, Velvetleaf",[2]; 1.0 kg/ha,80%
same,"% Control, Velvetleaf",[2]; 2.0 kg/ha,100%
same,"% Control, Velvetleaf",[2]; 4.0 kg/ha,100%
same,"% Control, Velvetleaf",[3]; 0.25 kg/ha,100%
same,"% Control, Velvetleaf",[3]; 0.50 kg/ha,100%
same,"% Control, Velvetleaf",[3]; 1.0 kg/ha,100%
same,"% Control, Velvetleaf",[3]; 2.0 kg/ha,100%
same,"% Control, Foxtail",[4]; 0.25 kg/ha,99%
same,"% Control, Foxtail",[4]; 0.50 kg/ha,100%
same,"% Control, Foxtail",[4]; 1.0 kg/ha,100%
same,"% Control, Foxtail",[4]; 2.0 kg/ha,100%
same,"% Control, Flower-of-an-Hour",[7]; 0.25 kg/ha,98%
same,"% Control, Flower-of-an-Hour",[7]; 0.50 kg/ha,100%
same,"% Control, Flower-of-an-Hour",[7]; 1.0 kg/ha,100%
same,"% Control, Flower-of-an-Hour",[7]; 2.0 kg/ha,100%
same,"% Control, Ragweed",[12]; 0.25 kg/ha,100%
same,"% Control, Ragweed",[12]; 0.50 kg/ha,100%
same,"% Control, Ragweed",[12]; 1.0 kg/ha,100%
same,"% Control, Ragweed",[12]; 2.0 kg/ha,100%
same,"% Control, Ragweed",[14]; 0.5 kg/ha,50%
same,"% Control, Ragweed",[14]; 1.0 kg/ha,70%
same,"% Control, Ragweed",[14]; 2.0 kg/ha,90%
same,"% Control, Ragweed",[14]; 4.0 kg/ha,> 99%
same,"% Control, Pigweed",[15]; 0.5 kg/ha,50%
same,"% Control, Pigweed",[15]; 1.0 kg/ha,70%
same,"% Control, Pigweed",[15]; 2.0 kg/ha,90%
same,"% Control, Pigweed",[15]; 4.0 kg/ha,99%
same,"Crop Response, Carrots",[18]; 0.5 kg/ha,4
same,"Crop Response, Carrots",[18]; 1.0 kg/ha,4
same,"Crop Response, Carrots",[18]; 2.0 kg/ha,4
same,"Crop Response, Carrots",[18]; 4.0 kg/ha,4
